# Source: patent US8318186B2, “Use of at least a fatty ester for preparing a composition designed to inhibit 5-α-reductase activity, in pharmacology, in particular dermatology, in cosmetics and as food additive” (Laboratoires Expanscience, priority 2000, dated 2012)
# Values joined by “and” are separate entries in the source; they are usually repeats but may differ in a detail not shown here. Equal values may be shown once. Marks after values point to notes of the source that are not given here.
# Experiments:
# 5α-reductase [1] = experiment: 5α-reductase activity, conversion of testosterone to 5α-dihydrotestosterone in normal human dermal fibroblast cultures (Example 3); type: cell-based; conditions: for 5α-reductase activity as percentage of the DMSO group / 5α-DHT formed per culture well, mean / 5α-DHT formed per culture well, single well: 22 hours of incubation; for 5α-DHT formed per culture well, mean / 5α-DHT formed per culture well, single well: DMSO 1% (v/v); for 5α-DHT formed per culture well, mean: mean of triplicate; for 5α-DHT formed per culture well, single well: single replicate; for inhibition of the 5α-reductase activity: text of Example 3
# Experimental: It is proposed to evaluate the effect of the products such as methyl oleate (Sigma commercial product, 99% purity), of the methyl esters of avocado and of a Serenoa Repens extract chosen as reference on the 5α-reductase activity. An in vitro model of normal human dermal fibroblast cultures was selected.
# (§1) The fibroblast culture medium (FCM) consisted of MEM/M199 (3:1, v/v) supplemented with penicillin (50 IU/ml), streptomycin (50 μg/ml), sodium bicarbonate (0.2%, w/v) and FCS (10%, v/v).
# (§2) The assay system consisted of normal human dermal fibroblasts cultured as a monolayer. The fibroblasts were isolated from a residue from abdominal plastic surgery performed on a person (subject BIOPREDIC No. I0013). The cells were used at the fifth passage; they were cultured until the monolayers were confluent in FCM medium at 37° C. in a humid atmosphere containing 5% CO2.
# (§3) The fibroblast incubation medium (FIM) consisted of FCM supplemented with tritiated testosterone (1.6×10^−7 M, that is 6.32 μCi/ml) and nonradiolabeled testosterone (3.84×10^−6 M)
# The test products and finasteride were taken up in DMSO before being diluted in the incubation medium. The final concentration of DMSO was kept constant and equal to 1% (v/v) in each dilution of test products and reference products.
# (§4) The fibroblast cultures were preincubated in the presence of the test products or of the reference product for 2 hours before adding the substrate, testosterone. For this step, the test products and the reference product were prepared in the FCM medium.
# After preincubation, the fibroblast cultures were incubated in the presence of the test products or of the reference product prepared in the FIM medium for 22 hours at 37° C. in a humid atmosphere containing 5% CO2. Control cultures were incubated in the FIM medium in the absence of test products and of reference product. “DMSO control” cultures were incubated in the FIM medium containing 1% (v/v) of DMSO.
# (§5) Each experimental condition was tested in triplicate.
# (§6) After the incubation period, the cells were subjected to the action of ultrasound in the FIM medium. The cellular lysates thus obtained were extracted with dichloromethane. After evaporation, the dry residues were taken up in methanol and were deposited on 60F254 silica plates (MERCK, reference 5554).
# Nonradiolabeled standards, testosterone, 5α-dihydro-testosterone and androstenedione, were deposited on each of the plates.
# (§7) The migration solvent was a mixture of dichloromethane and ether (7:3, v/v) At the end of the migration, the silica plates were read using a BERTHOLD radioactivity scanner.
# The nonradiolabeled standards were visualized by spraying 5% sulfuric acid (v/v) over the chromatography plates which were then heated at 100° C. for 10 minutes.
# Comparison of the Rf values (relative retardation factor) determined for the standards with those obtained for the various radioactive metabolites allowed the identification of the latter.
# (§8) The metabolizing of testosterone to 5α-dihydro-testosterone under the various experimental conditions was calculated: the results (areas of the 5α-dihydrotestosterone peaks counted by the BERTHOLD scanner) were expressed in pmol of 5α-dihydro-testosterone formed per culture well. They were also expressed as a percentage of the 5α-reductase activity present in the “DMSO control” group.
# (§9) The groups of data (control group and treated groups) were treated by a one-way analysis of variance (ANOVA 1, p<0.05), followed by a DUNNETT's test (p<0.05). The effect of the test products and of the reference product was compared with the “DMSO control” group. The effects of the test products were compared to each other by a two-way analysis of variance (ANOVA 2, p<0.05, factor 1=concentration and factor 2=treatment).
# 5α-reductase [2] = experiment: Fatty acid esters on 5α-reductase activity, conversion of testosterone to 5α-dihydrotestosterone in normal human dermal fibroblast cultures (Example 4); type: cell-based; parameters: key to group by 5α-reductase inhibitory activity: group A with the highest inhibitory activity; group B with an intermediate inhibitory activity; conditions: for inhibition of the 5α-reductase activity: Example 4, p<0.05; for 5α-DHT formed per culture well, mean / 5α-DHT formed per culture well, single well: after 24 of incubation, DMSO 0.1% (v/v); for 5α-DHT formed per culture well, single well: single replicate
# Experimental: as §1, §2, §3
# The test products and finasteride were taken up in DMSO before being diluted in the incubation medium. […]
# as §4
# After preincubation, the fibroblast cultures were incubated in the presence of the test products or of the reference product prepared in the FIM medium for 22 hours at 37° C. in a humid atmosphere containing 5% CO2. Control cultures were incubated in the FIM medium in the absence of test products and of reference product. […]
# as §5, §6, §7, §8, §9
# The same materials and methods are used as in example 3 above.
# It was proposed to evaluate the effect of fatty acid esters on the 5α-reductase activity. An in vitro model of normal human dermal fibroblast cultures was selected. The products tested were chosen from the group of fatty acid esters varying in the length and the functionality of the fatty chain, and the nature of the alkoxy group. These esters are the following: methyl oleate, methyl linoleate, methyl stearate, methyl laurate, methyl undecylenate, butyl oleate, oleyl oleate and methyl ricinoleate.
smiles,measurement,setting,value
"CCCCCCCC/C=C\CCCCCCCC(=O)OC [Methyl oleate, methyl oleate]",5α-reductase activity as percentage of the DMSO group,5α-reductase [1]; 1 μg/ml,76 percentage of the DMSO group
same,"5α-DHT formed per culture well, mean",5α-reductase [1]; 1 μg/ml,6.48* +/− pmol of 5α-DHT formed/culture well
same,"5α-DHT formed per culture well, single well",5α-reductase [1]; 1 μg/ml,7.12 pmol of 5α-DHT formed/culture well and 6.24 pmol of 5α-DHT formed/culture well and 6.08 pmol of 5α-DHT formed/culture well
same,inhibition of the 5α-reductase activity,5α-reductase [1]; 1 μg/ml,24%
same,5α-reductase activity as percentage of the DMSO group,5α-reductase [1]; 10 μg/ml,62 percentage of the DMSO group
same,"5α-DHT formed per culture well, mean",5α-reductase [1]; 10 μg/ml,5.32* +/− pmol of 5α-DHT formed/culture well
same,"5α-DHT formed per culture well, single well",5α-reductase [1]; 10 μg/ml,3.00 pmol of 5α-DHT formed/culture well and 7.04 pmol of 5α-DHT formed/culture well and 5.92 pmol of 5α-DHT formed/culture well
same,inhibition of the 5α-reductase activity,5α-reductase [1]; 10 μg/ml,38%
same,5α-reductase activity as percentage of the DMSO group,5α-reductase [1]; 100 μg/ml,59 percentage of the DMSO group
same,"5α-DHT formed per culture well, mean",5α-reductase [1]; 100 μg/ml,5.05* +/− pmol of 5α-DHT formed/culture well
same,"5α-DHT formed per culture well, single well",5α-reductase [1]; 100 μg/ml,5.44 pmol of 5α-DHT formed/culture well and 5.12 pmol of 5α-DHT formed/culture well and 4.60 pmol of 5α-DHT formed/culture well
same,inhibition of the 5α-reductase activity,5α-reductase [1]; 100 μg/ml,41%
same,"5α-reductase inhibitory activity, in words","5α-reductase [1]; tested at 10 and 100 μg/ml, compared with Serenoa repens extract",significantly higher than that of the Serenoa repens extract
same,5α-reductase activity as percentage of the “DMSO 0.1% (v/v)” group,5α-reductase [2]; 1 μg/ml,71 percentage of the “DMSO 0.1% (v/v)” group
same,inhibition of the 5α-reductase activity,5α-reductase [2]; 1 μg/ml,29%
same,"5α-DHT formed per culture well, mean",5α-reductase [2]; 1 μg/ml,8.12* +/− pmol of 5α-DHT formed/culture well
same,"5α-DHT formed per culture well, single well",5α-reductase [2]; 1 μg/ml,8.24 pmol of 5α-DHT formed/culture well and 8.28 pmol of 5α-DHT formed/culture well and 7.84 pmol of 5α-DHT formed/culture well
same,5α-reductase activity as percentage of the “DMSO 0.1% (v/v)” group,5α-reductase [2]; 10 μg/ml,58 percentage of the “DMSO 0.1% (v/v)” group
same,inhibition of the 5α-reductase activity,5α-reductase [2]; 10 μg/ml,42%
same,"5α-DHT formed per culture well, mean",5α-reductase [2]; 10 μg/ml,6.61* +/− pmol of 5α-DHT formed/culture well
same,"5α-DHT formed per culture well, single well",5α-reductase [2]; 10 μg/ml,6.28 pmol of 5α-DHT formed/culture well and 6.44 pmol of 5α-DHT formed/culture well and 7.12 pmol of 5α-DHT formed/culture well
same,5α-reductase activity as percentage of the “DMSO 0.1% (v/v)” group,5α-reductase [2]; 100 μg/ml,64 percentage of the “DMSO 0.1% (v/v)” group
same,inhibition of the 5α-reductase activity,5α-reductase [2]; 100 μg/ml,26%
same,"5α-DHT formed per culture well, mean",5α-reductase [2]; 100 μg/ml,7.24* +/− pmol of 5α-DHT formed/culture well
same,"5α-DHT formed per culture well, single well",5α-reductase [2]; 100 μg/ml,7.52 pmol of 5α-DHT formed/culture well and 7.00 pmol of 5α-DHT formed/culture well and 7.20 pmol of 5α-DHT formed/culture well
same,group by 5α-reductase inhibitory activity,"5α-reductase [2]; tested at 1, 10 and 100 μg/ml",A
